The data set in a line: RP, Waters ACQUITY UPLC HSS T3, 150 × 2.1 mm, 1.8 µm, 40 °C, 0.28 mL/min, estimated dead time 1.2 min; A: water + 0.1% formic acid; B: methanol + 0.1% formic acid; gradient (min/%B) 0/0 1/0 3/10 18/40 21/100 25.5/100. The following applies: stereoisomer not certain.

On to `O=C(O)C1OC(Oc2c(-c3cc(O)c(O)c(O)c3)oc3cc(O)cc(O)c3c2=O)C(O)C(O)C1O` (stereo not drawn), for which the LC retention time is 16.6 min.
For the molecule `CC(C=CC1(O)C(C)=CC(=O)CC1(C)C)=CC(=O)O` (stereo not drawn), the LC retention time was 20.6 min.
Turning to `Oc1cc(O)c2c(c1)OC1(c3ccc(O)c(O)c3)Oc3cc(O)c4c(c3C2C1O)OC(c1ccc(O)c(O)c1)C(O)C4` (stereo not drawn), the LC retention time is 8.34 min.
In the case of `NC(Cc1ccc(O)cc1)C(=O)O` (stereo not drawn) it was 4.05 min.
On to `COc1cc(-c2oc3cc(O)cc(O)c3c(=O)c2O)cc(O)c1O`, for which the LC retention time was 20.9 min.
For `COc1cc(-c2[o+]c3cc(O)cc(O)c3cc2OC2OC(COC(=O)C=Cc3ccc(O)cc3)C(O)C(O)C2O)cc(OC)c1O` (stereo not drawn) the value was 20.3 min.
In the case of `COc1cc(-c2[o+]c3cc(O)cc(O)c3cc2OC2OC(COC(C)=O)C(O)C(O)C2O)ccc1O` (stereo not drawn) it was 19.5 min.
In the case of `CCOC(=O)C=Cc1ccc(O)c(O)c1`, the LC retention time was 20.7 min.
In the case of `O=C(O)C1OC(Oc2c(-c3ccc(O)cc3)oc3cc(O)cc(O)c3c2=O)C(O)C(O)C1O` (stereo not drawn) it was 20.2 min; in that of `O=C1c2c(O)cc(O)cc2OC(c2ccc(O)cc2)C1O` (stereo not drawn), 18.6 min.
For the molecule `Cc1cc2nc3c(=O)[nH]c(=O)nc-3n(CC(O)C(O)C(O)CO)c2cc1C` (stereo not drawn), the LC retention time was 14.6 min.
In the case of `OCC1OC(Oc2cc3c(O)cc(O)cc3[o+]c2-c2cc(O)c(O)c(O)c2)C(O)C(O)C1O` (stereo not drawn) it was 11.3 min; in that of `O=c1cc2oc(-c3ccc(O)c(O)c3)c(OC3OC(COC(=[OH+])C=Cc4ccc(O)cc4)C(O)C(O)C3O)cc-2c(O)c1` (stereo not drawn), 20.2 min.
For the molecule `COc1cc(-c2oc3cc(=[OH+])cc4occc(c2OC2OC(CO)C(O)C(O)C2O)c43)cc(OC)c1O` (stereo not drawn), the LC retention time is 17.7 min.
For `O=C(O)C1CCCN1` (stereo not drawn) the value was 1.49 min; for `O=S(=O)(O)c1[nH]c2ccccc2c1CCO`, 10.5 min.
In the case of `COc1cc(C=CC(=O)OC(C(=O)O)C(O)C(=O)O)ccc1O` (stereo not drawn), the LC retention time was 10.9 min.
Consider `COc1cc(-c2[o+]c3cc(O)cc(O)c3cc2OC2OC(COC(C)=O)C(O)C(O)C2O)cc(O)c1O` (stereo not drawn), for which the LC retention time was 18.4 min.
In the case of `O=C(O)C(O)Cc1c[nH]c2ccccc12` (stereo not drawn) it was 15.3 min.
Take `COc1cc(-c2oc3cc(O)cc(O)c3c(=O)c2OC2OC(CO)C(O)C(O)C2O)cc(OC)c1O` (stereo not drawn): the LC retention time is 20.4 min.
In the case of `COc1cc(-c2[o+]c3cc(O)cc(O)c3cc2OC2OC(CO)C(O)C(O)C2O)cc(O)c1O` (stereo not drawn), the LC retention time is 13.3 min.
For `COc1cc(-c2[o+]c3cc(O)cc(O)c3cc2OC2OC(COC(=O)C=Cc3ccc(O)cc3)C(O)C(O)C2O)ccc1O` (stereo not drawn) the value was 20.4 min; for `O=C(O)c1cc(O)c(O)c(O)c1`, 6.83 min; for `O=c1c(OC2OC(CO)C(O)C(O)C2O)c(-c2ccc(O)cc2)oc2cc(O)cc(O)c12` (stereo not drawn), 20.2 min.
In the case of `O=c1c(O)c(-c2ccc(O)cc2)oc2cc(O)cc(O)c12` it was 21.2 min; in that of `COc1cc(-c2oc3cc(O)cc(O)c3c(=O)c2O)ccc1O`, 21.2 min; in that of `CC(C)CC(N)C(=O)O` (stereo not drawn), 4.21 min.
As to `COc1cc(-c2oc3cc(O)cc(O)c3c(=O)c2O)cc(OC)c1O`, the LC retention time was 21.3 min.
With `O=C(OC1Cc2c(O)cc(O)cc2OC1c1cc(O)c(O)c(O)c1)c1cc(O)c(O)c(O)c1` (stereo not drawn), the LC retention time was 15.2 min.
For `CC(=O)OCC1OC(Oc2cc3c(O)cc(O)cc3[o+]c2-c2cc(O)c(O)c(O)c2)C(O)C(O)C1O` (stereo not drawn), the LC retention time is 16.9 min.
For `NC(CCC(=O)NC(CS)C(=O)NCC(=O)O)C(=O)O` (stereo not drawn) the value was 2.46 min.
With `O=C(C=Cc1ccc(O)cc1)OCC1OC(Oc2cc3c(O)cc(O)cc3[o+]c2-c2cc(O)c(O)c(O)c2)C(O)C(O)C1O` (stereo not drawn), the LC retention time was 20 min.
Regarding `O=c1c(OC2OC(CO)C(O)C(O)C2O)c(-c2cc(O)c(O)c(O)c2)oc2cc(O)cc(O)c12` (stereo not drawn), the LC retention time is 17 min.
As to `O=C1c2c(O)cc(O)cc2OC(c2ccc(O)c(OC3OC(C(=O)O)C(O)C(O)C3O)c2)C1O` (stereo not drawn), the LC retention time was 19 min.
Consider `NC(Cc1ccccc1)C(=O)O` (stereo not drawn), for which the LC retention time was 5.95 min.
For `O=c1[nH]c(=O)c2[nH]cnc2[nH]1` the value was 3.94 min.
Regarding `O=C(C=Cc1ccc(O)c(O)c1)OC(C(=O)O)C(O)C(=O)O` (stereo not drawn), the LC retention time is 7.71 min.
With `CC(C)C(N)C(=O)O` (stereo not drawn), the LC retention time is 2.07 min.
In the case of `COc1cc(-c2[o+]c3cc(O)cc(O)c3cc2OC2OC(CO)C(O)C(O)C2O)ccc1O` (stereo not drawn) it was 14.6 min; in that of `Oc1ccc(C=Cc2cc(O)cc(O)c2)cc1`, 20.4 min; in that of `O=c1c(O)c(-c2ccc(O)c(O)c2)oc2cc(O)cc(O)c12`, 20.8 min.
As to `CCOC(=O)c1cc(O)c(O)c(O)c1`, the LC retention time was 14.2 min.
Turning to `COc1cc(-c2[o+]c3cc(O)cc(O)c3cc2OC2OC(CO)C(O)C(O)C2O)cc(OC)c1O` (stereo not drawn), the LC retention time is 14.8 min.
In the case of `O=C(OC1Cc2c(O)cc(O)cc2OC1c1ccc(O)c(O)c1)c1cc(O)c(O)c(O)c1` (stereo not drawn) it was 14.4 min.
Regarding `COc1cc(-c2[o+]c3cc(O)cc(O)c3cc2OC2OC(COC(C)=O)C(O)C(O)C2O)cc(OC)c1O` (stereo not drawn), the LC retention time was 19.6 min.
Take `COc1cc(-c2oc3cc(=O)cc4oc(O)c(C=[OH+])c(c2OC2OC(CO)C(O)C(O)C2O)c43)cc(OC)c1O` (stereo not drawn): the LC retention time is 18.6 min.
In the case of `O=c1oc2c(O)c(O)cc3c(=O)oc4c(O)c(O)cc1c4c23` it was 19.8 min.
In the case of `COc1cc(-c2oc3cc(O)cc(O)c3c(=O)c2OC2OC(CO)C(O)C(O)C2O)cc(O)c1O` (stereo not drawn) it was 19.6 min; in that of `CC(C)(CO)C(O)C(=O)NCCC(=O)O` (stereo not drawn), 7.04 min; in that of `CC(=O)OCC1OC(Oc2cc3c(O)cc(O)cc3[o+]c2-c2ccc(O)c(O)c2)C(O)C(O)C1O` (stereo not drawn), 18.1 min.
As for `NC(Cc1c[nH]c2ccccc12)C(=O)O` (stereo not drawn), the LC retention time was 8.26 min.
As for `COc1cc(-c2[o+]c3cc(O)cc(O)c3cc2OC2OC(COC(=O)C=Cc3ccc(O)cc3)C(O)C(O)C2O)cc(O)c1O` (stereo not drawn), the LC retention time is 20.2 min.
In the case of `COc1cc(-c2oc3cc(O)cc(O)c3c(=O)c2OC2OC(CO)C(O)C(O)C2O)ccc1O` (stereo not drawn) it was 20.3 min.
